Consider 19 compounds from publication PMC5026067, “Substrate Fragmentation for the Design of M. tuberculosis CYP121 Inhibitors” (Chemmedchem, 2016).

Sequence of CYP142 (P9WPL5 whole entry): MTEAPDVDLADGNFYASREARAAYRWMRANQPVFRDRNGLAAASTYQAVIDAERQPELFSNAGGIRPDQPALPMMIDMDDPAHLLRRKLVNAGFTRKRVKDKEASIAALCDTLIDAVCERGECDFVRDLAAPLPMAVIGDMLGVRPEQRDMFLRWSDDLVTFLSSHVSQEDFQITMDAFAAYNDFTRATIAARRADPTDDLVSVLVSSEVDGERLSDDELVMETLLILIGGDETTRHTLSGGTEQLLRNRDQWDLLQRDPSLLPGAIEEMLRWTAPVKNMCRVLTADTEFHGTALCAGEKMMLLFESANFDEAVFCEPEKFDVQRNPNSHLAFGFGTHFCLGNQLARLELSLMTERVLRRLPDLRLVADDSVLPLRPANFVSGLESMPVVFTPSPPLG

One assay deals with CYP124 (Mycobacterium tuberculosis, UniProt P9WPP3). Put plainly: UV/vis Soret shift. The format is binding. Particulars: 10 µM; […] ligand, […] DMSO; weak blue shift.
Sequence of CYP124 (P9WPP3 whole entry): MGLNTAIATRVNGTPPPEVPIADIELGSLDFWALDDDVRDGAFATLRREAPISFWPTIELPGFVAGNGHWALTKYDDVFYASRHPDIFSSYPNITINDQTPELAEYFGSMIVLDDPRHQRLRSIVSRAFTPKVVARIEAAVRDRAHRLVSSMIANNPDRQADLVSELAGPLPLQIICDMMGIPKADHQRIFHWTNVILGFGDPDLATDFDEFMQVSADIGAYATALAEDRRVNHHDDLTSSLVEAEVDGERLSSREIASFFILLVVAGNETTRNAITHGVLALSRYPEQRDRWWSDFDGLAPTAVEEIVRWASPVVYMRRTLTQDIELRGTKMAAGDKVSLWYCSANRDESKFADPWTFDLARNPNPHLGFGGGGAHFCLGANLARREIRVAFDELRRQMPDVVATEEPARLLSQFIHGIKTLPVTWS
`NC(Cc1c[nH]c2ccc(Br)cc12)C(=O)SCCc1ccccc1` (racemic) [compound 31, compound 31 (5-bromo-tryptophan phenethyl-thioester)]: the CYP124 is reported as −2 nm.

The assay is the same for the next values; noted with them: 100 µM; […] ligand, […] DMSO; weak blue shift.
Turning to `N[C@H](Cc1c[nH]c2ccccc12)C(=O)NCCc1c[nH]c2ccccc12` [compound 9, acyclic cWW-9], the CYP124 is given as −2 nm.

In a further assay the target is T1, Mtb CYP121 (Mycobacterium tuberculosis, UniProt P9WPP7). In words: thermal shift assay. The format is binding.
T1 sequence (P9WPP7 whole entry): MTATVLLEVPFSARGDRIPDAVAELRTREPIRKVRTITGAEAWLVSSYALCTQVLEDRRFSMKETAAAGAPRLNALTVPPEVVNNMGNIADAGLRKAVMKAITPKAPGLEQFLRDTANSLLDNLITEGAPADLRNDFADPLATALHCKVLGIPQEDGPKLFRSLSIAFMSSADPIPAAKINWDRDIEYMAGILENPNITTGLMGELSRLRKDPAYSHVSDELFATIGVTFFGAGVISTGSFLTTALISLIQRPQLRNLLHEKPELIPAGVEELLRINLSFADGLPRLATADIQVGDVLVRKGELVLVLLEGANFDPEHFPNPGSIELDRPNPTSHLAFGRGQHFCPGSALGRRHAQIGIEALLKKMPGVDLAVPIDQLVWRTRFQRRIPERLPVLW
Conditions: not given
The source says:
thermal shift assay on Mtb CYP121
As to `COC(=O)[C@H](N)Cc1ccc(O)cc1` [1b, D-tyrosine methyl ester], the ΔTm at 5000 µM was found to be 3 °C.

The next assay concerns the target CYP142 (Mycobacterium tuberculosis, UniProt P9WPL5). In words: UV/vis Soret shift. The format is binding. Particulars: 2000 µM; […] ligand, […] DMSO; type II. An excerpt:
UV/vis Soret shift on CYP142
As for `COC(=O)[C@H](N)Cc1c[nH]c2ccccc12` [1a, D-tryptophan methyl ester], the CYP142 entry was “+2 nm”.

In another assay the target is T1, Mtb CYP121. In words: UV/vis optical titration (Soret shift). Format: binding.
Conditions: not given
An excerpt:
UV/vis optical titration (Soret shift) on Mtb CYP121
As to `N[C@H](Cc1c[nH]c2ccccc12)c1nc(-c2ccccc2)c[nH]1` [compound 14, imidazole 14], the Kd was 530 ± 100 µM.

Still in this assay, the particulars now being: read-out: K d [μM]^[b].
Regarding `NC(Cc1c[nH]c2ccc(Br)cc12)c1nc(-c2ccccc2)cs1` (racemic) [compound 32, compound 32 (5-bromo-tryptophan phenyl-thiazole)], the Kd was 32 ± 2.5 µM.
On to `N[C@H](Cc1c[nH]c2ccccc12)C(=O)SCCc1c[nH]c2ccccc12` [compound 17, indole-substituted thioester 17], for which the Kd was 45 ± 4.4 µM.
Still for that read-out and setting: then `N[C@H](Cc1c[nH]c2ccccc12)C(=O)OC/C=C/c1ccccc1` [compound 20, compound 20 (trans-alkene)], with 120 ± 21 µM; and `N[C@H](Cc1c[nH]c2ccccc12)C(=S)NCCc1ccccc1` [compound 12, thioamide 12], with 150 ± 18 µM.
The same measure, in the same setting: then `COC(=O)[C@H](N)Cc1c[nH]c2ccccc12` [1a, D-tryptophan methyl ester], with 840 ± 88 µM.
Still for that read-out and setting: the result for `N[C@H](Cc1c[nH]c2ccccc12)c1nc(Cc2c[nH]c3ccccc23)cs1` [compound 18, indole-substituted thiazole 18] reads 52 ± 3.1 µM; that for `N[C@H](Cc1c[nH]c2ccccc12)C(=O)NCCc1c[nH]c2ccccc12` [compound 9, acyclic cWW-9], 110 ± 6 µM.
In the case of `NC(Cc1c[nH]c2ccc(O)cc12)C(=O)SCCc1ccccc1` (racemic) [compound 26, compound 26 (5-hydroxy indole)], the Kd stood at 130 ± 9.3 µM.
The same measure, in the same setting: then `NC(Cc1ccccc1Br)C(=O)SCCc1ccccc1` (stereo not shown) [compound 30, 2-bromophenylalanine derivative 30], with 30 ± 3.8 µM; and `N[C@H](Cc1c[nH]c2ccccc12)c1nc(-c2ccccc2)cs1` [compound 13, thiazole 13], with 44 ± 3.6 µM.
Same read-out and setting: then `NC(Cc1c[nH]c2ccc(Br)cc12)C(=O)SCCc1ccccc1` (racemic) [compound 31, compound 31 (5-bromo-tryptophan phenethyl-thioester)], with 16 ± 2.4 µM; and `N[C@H](Cc1c[nH]c2ccccc12)C(=O)NCCc1ccc(O)cc1` [compound 7, acyclic cYW-7], with 260 ± 14 µM; and `N[C@H](Cc1c[nH]c2ccccc12)C(=O)NCCc1ccccc1` [compound 8, acyclic cWF-8], with 270 ± 22 µM.
Take `N[C@H](Cc1c[nH]c2ccccc12)C(=O)OCCc1ccccc1` [compound 2, phenethyl ester 2]: the Kd is 200 ± 17 µM.
Still for that read-out and setting: the result for `N[C@H](Cc1c[nH]c2ccccc12)C(=O)SCC1CC(c2ccccc2)=NO1` (stereo partly shown) [compound 25, phenyl-isoxazole-substituted compound 25] reads 35 ± 4.2 µM.
On the same count and under the same terms, then `N[C@@H](Cc1c[nH]c2ccccc12)C(=O)OCCc1ccccc1` [compound 3, L-phenethyl ester 3], with 200 ± 19 µM; and `NC(Cc1c[nH]c2ncccc12)C(=O)SCCc1ccccc1` (racemic) [compound 27, aza-tryptophan analogue 27], with 110 ± 9.1 µM.
